According to ChEMBL document CHEMBL2016532, “Novel potent dual inhibitors of CK2 and Pim kinases with antiproliferative activity against cancer cells” (Bioorg Med Chem Lett, 2012):

What was measured:
[1] = target: Serine/threonine-protein kinase pim-1 (Homo sapiens, UniProt P11309); experiment: Inhibition of human recombinant Pim1 using RSRHSSYPAGT as substrate and 30 uM ATP by radiometric assay
[2] = target: Serine/threonine-protein kinase pim-2 (Homo sapiens, UniProt Q9P1W9); experiment: Inhibition of human recombinant Pim2 using RSRHSSYPAGT as substrate and 5 uM ATP by radiometric assay
Chain of Serine/threonine-protein kinase pim-2 (Q9P1W9 whole entry): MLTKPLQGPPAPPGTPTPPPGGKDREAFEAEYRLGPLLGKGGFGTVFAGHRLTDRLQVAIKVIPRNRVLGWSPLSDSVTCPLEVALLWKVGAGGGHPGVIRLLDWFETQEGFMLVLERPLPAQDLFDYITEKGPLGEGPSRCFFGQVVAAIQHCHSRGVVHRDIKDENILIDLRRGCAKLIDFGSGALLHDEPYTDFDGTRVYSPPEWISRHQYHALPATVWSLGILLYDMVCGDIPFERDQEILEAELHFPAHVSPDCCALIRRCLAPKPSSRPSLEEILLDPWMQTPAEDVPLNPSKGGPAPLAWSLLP

[3] = target: Casein kinase II alpha/beta (Homo sapiens, UniProt P68400); assay type: protein-complex assay
Chain of Casein kinase II alpha/beta (P67870 whole entry): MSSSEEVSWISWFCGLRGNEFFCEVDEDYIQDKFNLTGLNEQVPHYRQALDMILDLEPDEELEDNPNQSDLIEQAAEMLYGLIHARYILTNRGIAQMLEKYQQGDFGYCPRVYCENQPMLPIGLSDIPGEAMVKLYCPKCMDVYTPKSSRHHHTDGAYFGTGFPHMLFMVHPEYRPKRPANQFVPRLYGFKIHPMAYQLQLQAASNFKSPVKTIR
Chain of Casein kinase II alpha/beta (P68400 whole entry): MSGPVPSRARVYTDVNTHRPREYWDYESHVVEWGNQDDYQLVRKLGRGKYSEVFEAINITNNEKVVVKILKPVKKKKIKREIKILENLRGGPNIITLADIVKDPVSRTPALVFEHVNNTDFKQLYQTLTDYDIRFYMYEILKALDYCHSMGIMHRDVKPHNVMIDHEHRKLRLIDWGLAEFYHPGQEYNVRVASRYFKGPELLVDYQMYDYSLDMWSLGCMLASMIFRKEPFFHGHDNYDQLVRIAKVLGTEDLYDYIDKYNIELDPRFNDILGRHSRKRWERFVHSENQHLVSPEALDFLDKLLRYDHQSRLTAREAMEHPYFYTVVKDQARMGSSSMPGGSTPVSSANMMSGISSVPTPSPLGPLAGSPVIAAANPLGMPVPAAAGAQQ

BXPC-3 = experiment: Antiproliferative activity against human BxPC3 cells after 48 hrs by alamar blue assay; assay type: functional, cell-based; conditions: BXPC-3, 48 h
[4] = Antiproliferative activity against human SUM149PT cells after 48 hrs by alamar blue assay; assay type: functional, cell-based
K562 = experiment: Antiproliferative activity against human K562 cells after 48 hrs by alamar blue assay; assay type: functional, cell-based; conditions: K562, 48 h
MV4-11 = experiment: Antiproliferative activity against human MV411 cells after 48 hrs by alamar blue assay; assay type: functional, cell-based; conditions: MV4-11, 48 h
[5] = tested on: MDA-MB-453 (Homo sapiens); experiment: Antiproliferative activity against human MDA-MB-453 cells after 48 hrs by alamar blue assay; conditions: MDA-MB-453, 48 h
[6] = target: T1, Receptor-type tyrosine-protein kinase FLT3 (Homo sapiens, UniProt P36888); experiment: Inhibition of Flt3
T1 sequence (P36888 whole entry): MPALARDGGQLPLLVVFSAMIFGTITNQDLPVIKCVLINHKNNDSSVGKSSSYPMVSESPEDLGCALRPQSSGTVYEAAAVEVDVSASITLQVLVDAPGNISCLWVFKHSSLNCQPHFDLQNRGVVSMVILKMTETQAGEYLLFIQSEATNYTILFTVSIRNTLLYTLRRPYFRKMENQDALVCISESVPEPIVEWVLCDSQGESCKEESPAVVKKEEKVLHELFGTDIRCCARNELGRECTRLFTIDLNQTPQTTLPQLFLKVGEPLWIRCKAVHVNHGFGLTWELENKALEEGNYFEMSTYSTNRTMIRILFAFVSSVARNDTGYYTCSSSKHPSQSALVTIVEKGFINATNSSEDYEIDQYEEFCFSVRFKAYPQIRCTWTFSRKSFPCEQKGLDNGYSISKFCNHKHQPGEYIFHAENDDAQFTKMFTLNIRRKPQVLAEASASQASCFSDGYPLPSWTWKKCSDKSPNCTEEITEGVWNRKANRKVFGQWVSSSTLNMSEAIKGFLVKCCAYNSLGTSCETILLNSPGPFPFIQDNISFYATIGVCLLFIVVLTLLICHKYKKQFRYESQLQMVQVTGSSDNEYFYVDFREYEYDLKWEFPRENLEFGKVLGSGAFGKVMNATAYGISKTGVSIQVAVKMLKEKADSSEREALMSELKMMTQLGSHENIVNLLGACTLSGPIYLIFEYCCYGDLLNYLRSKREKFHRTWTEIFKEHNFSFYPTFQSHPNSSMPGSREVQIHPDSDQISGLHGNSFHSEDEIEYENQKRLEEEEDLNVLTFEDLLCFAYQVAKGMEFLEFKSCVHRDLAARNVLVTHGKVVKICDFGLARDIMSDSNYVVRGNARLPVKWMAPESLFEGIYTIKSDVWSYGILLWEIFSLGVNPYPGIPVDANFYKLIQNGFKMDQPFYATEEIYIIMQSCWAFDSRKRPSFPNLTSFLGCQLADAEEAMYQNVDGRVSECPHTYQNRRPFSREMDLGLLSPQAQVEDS

Chain of Serine/threonine-protein kinase pim-1 (P11309 whole entry): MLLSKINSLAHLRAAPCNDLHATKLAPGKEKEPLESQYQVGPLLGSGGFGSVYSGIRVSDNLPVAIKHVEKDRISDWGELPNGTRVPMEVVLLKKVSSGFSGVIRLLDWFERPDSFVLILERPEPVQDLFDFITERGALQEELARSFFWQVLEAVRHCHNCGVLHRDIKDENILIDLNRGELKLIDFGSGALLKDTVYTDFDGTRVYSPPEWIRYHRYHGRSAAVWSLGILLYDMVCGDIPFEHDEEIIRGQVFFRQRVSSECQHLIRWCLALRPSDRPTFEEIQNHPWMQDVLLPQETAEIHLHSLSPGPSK

SMILES	IC50 [1] [nM]	IC50 [2] [nM]	IC50 [3] [nM]	EC50 (BXPC-3) [nM]	EC50 (K562) [nM]	EC50 (MV4-11) [nM]	EC50 [5] [nM]	IC50 [6] [nM]	EC50 [4] [nM]
NC(=O)c1ccc(Nc2nc3c(-c4nnc[nH]4)cccc3c3sccc23)cc1	17	17	139						
c1cc(-c2nnc[nH]2)c2nc(N3CCOCC3)c3ccsc3c2c1	35	10	128						
Fc1ccc(Nc2nc3c(-c4nnc[nH]4)cccc3c3sccc23)cc1F	9	15	77						
CN(C)CCOc1ccc(Nc2nc3c(-c4nnc[nH]4)cccc3c3sccc23)cc1	16	34	136						
c1cc(-c2nnc[nH]2)c2nc(NC3CC3)c3ccsc3c2c1	15	25	62						
Clc1ccccc1Nc1nc2c(-c3nnc[nH]3)cccc2n2cccc12	12	41	89					> 10000	
c1ccc(Nc2nc3c(-c4nnc[nH]4)cccc3n3cccc23)cc1	14	30	101						
COc1cccc(Nc2nc3c(-c4nnc[nH]4)cccc3c3sccc23)c1	11	28	11						
FC(F)(F)c1cccc(Nc2nc3c(-c4nnc[nH]4)cccc3c3sccc23)c1	16	52	24						
O=C(O)c1cccc2c1nc(Nc1ccccc1Cl)c1ccsc12	69	121	139						
c1cncc(Nc2nc3c(-c4nnc[nH]4)cccc3c3sccc23)c1	17	22	76						
Fc1ccc(Nc2nc3c(-c4nnc[nH]4)cccc3c3sccc23)c(Cl)c1	9	9	52						
Fc1ccccc1Nc1nc2c(-c3nnc[nH]3)cccc2n2cccc12	8	20	89	> 30000	8200	3700	28400		22800
N#Cc1cccc(Nc2nc3c(-c4nnc[nH]4)cccc3c3sccc23)c1	10	12	126						
Clc1ccc(Nc2nc3c(-c4nnc[nH]4)cccc3c3sccc23)cc1	14	86	33						
Fc1ccccc1Nc1nc2c(-c3nnc[nH]3)cccc2n2cncc12	38	43	35	15000	5400	100	3100		5400
Cc1cc2c(Nc3ccccc3F)nc3c(-c4nnc[nH]4)cccc3c2s1	15	6	26						
c1ccc(Nc2nc3c(-c4nnc[nH]4)cccc3c3ccsc23)cc1	16	14	30						
c1cc(-c2nnc[nH]2)c2nc(Nc3ccncc3)c3ccsc3c2c1	91	68	216						
c1ccc(Nc2nc3c(-c4nnc[nH]4)cccc3c3cscc23)cc1	27	17	10						
Fc1cc(F)cc(Nc2nc3c(-c4nnc[nH]4)cccc3c3sccc23)c1	9	24	151						
FC(F)(F)Oc1ccc(Nc2nc3c(-c4nnc[nH]4)cccc3c3sccc23)c(Cl)c1	64	76	75						
Oc1ccc(Nc2nc3c(-c4nnc[nH]4)cccc3c3sccc23)c(Cl)c1	14	4	10						

Second part, led by results:

IC50 [1] [nM]	IC50 [2] [nM]	IC50 [3] [nM]	EC50 (BXPC-3) [nM]	EC50 (K562) [nM]	EC50 (MV4-11) [nM]	EC50 [5] [nM]	IC50 [6] [nM]	SMILES	EC50 [4] [nM]
2	2	11	> 30000	4800	1700	4600		Fc1ccc(Nc2nc3c(-c4nnc[nH]4)cccc3c3sccc23)c(F)c1	> 30000
8	9	39	2800	> 10000	4700	2000		Clc1ccccc1Nc1nc2c(-c3nnc[nH]3)cccc2c2scnc12	12600
7	8	20	4500	> 10000	600	4900	> 10000	Clc1ccccc1Nc1nc2c(-c3nnc[nH]3)cccc2c2cscc12	2600
4	6	21	16100	> 10000	3200	1300	> 10000	Clc1ccccc1Nc1nc2c(-c3nnc[nH]3)cccc2c2ccsc12	2600
4	6	5	28000	7200	6500	7400		COc1ccc(Nc2nc3c(-c4nnc[nH]4)cccc3c3sccc23)cc1	8200
4	15	10	> 30000	6100	2000	7800		c1ccc(Nc2nc3c(-c4nnc[nH]4)cccc3c3sccc23)cc1	7000
5	12	22						NC(=O)c1cccc2c1nc(Nc1ccccc1Cl)c1ccsc12	
4	7	7	> 30000	> 10000	> 10000	6600		Fc1ccc(Nc2nc3c(-c4nnc[nH]4)cccc3c3sccc23)cc1	> 30000
2	2	4	> 30000	3600	600	7100		Fc1ccccc1Nc1nc2c(-c3nnc[nH]3)cccc2c2sccc12	9500
6	5	2	24600	6700	5400	9300		C#Cc1cccc(Nc2nc3c(-c4nnc[nH]4)cccc3c3sccc23)c1	9600
7	49	84						COc1ccccc1Nc1nc2c(-c3nnc[nH]3)cccc2c2sccc12	
5	28	48					5300	CNC(=O)c1cccc2c1nc(Nc1ccccc1Cl)c1ccsc12	
5	21	17						COc1cccc(Nc2nc3c(-c4nnc[nH]4)cccc3c3sccc23)c1Cl	
3	2	9	11700	3600	500	2600	> 10000	Clc1ccccc1Nc1nc2c(-c3nnc[nH]3)cccc2c2sccc12	4400
3	5	7	9100	> 10000	4600	2600		Fc1cccc(Nc2nc3c(-c4nnc[nH]4)cccc3c3sccc23)c1	8100
6	6	15						Clc1cccc(Nc2nc3c(-c4nnc[nH]4)cccc3c3sccc23)c1	
4	52	48						c1ccc(CNc2nc3c(-c4nnc[nH]4)cccc3c3sccc23)cc1	
